Species on record: Rattus norvegicus
Assay: Open TG-GATES - Regimen: Single
Format: toxicity, organism-based, Sprague-Dawley
Design: regimen Single, gender Male, age 6 weeks
Details: in vivo, po, route gavage; for gamma-GTP / ALP / ALT / AST / BUN / CRE / Ca / DBIL / GLC / IP / K / LDH / Na / PL / RALB / TBIL / TC / TG / TP: tissue Plasma; for APTT / Bas / Eos / Fbg / Hb / Ht / Lym / MCH / MCHC / MCV / Mono / Neu / PT / Plat / RBC / Ret / WBC: tissue Blood; for KIDNEY_L / KIDNEY_R / KIDNEY_TOTAL: tissue Kidney

CSc1ccc2c(c1)N(CCC1CCCCN1C)c1ccccc1S2 (stereo unspecified) [THIORIDAZINE]
gamma-GTP (0 mg/kg, 24 h, dose level Control): 1.2 IU/L | TERMINAL_BW (10 mg/kg, 3 h, dose level Low): 216.5 g | APTT (10 mg/kg, 3 h, dose level Low): 16.2 s | Bas (10 mg/kg, 3 h, dose level Low): 0% | Eos (10 mg/kg, 3 h, dose level Low): 0.6% | Fbg (10 mg/kg, 3 h, dose level Low): 201 mg/dL | Hb (10 mg/kg, 3 h, dose level Low): 12.6 g/dL | Ht (10 mg/kg, 3 h, dose level Low): 37.5% | Lym (10 mg/kg, 3 h, dose level Low): 77% | MCH (10 mg/kg, 3 h, dose level Low): 22.5 pg | MCHC (10 mg/kg, 3 h, dose level Low): 33.6% | MCV (10 mg/kg, 3 h, dose level Low): 67.1 fL | Mono (10 mg/kg, 3 h, dose level Low): 9.8% | Neu (10 mg/kg, 3 h, dose level Low): 13% | PT (10 mg/kg, 3 h, dose level Low): 12.2 s | Plat (10 mg/kg, 3 h, dose level Low): 94.9 x10_4/uL | RBC (10 mg/kg, 3 h, dose level Low): 560.4 x10_4/ul | Ret (10 mg/kg, 3 h, dose level Low): 8% | WBC (10 mg/kg, 3 h, dose level Low): 87.7 x10_2/uL | KIDNEY_L (10 mg/kg, 3 h, dose level Low): 1 g | KIDNEY_R (10 mg/kg, 3 h, dose level Low): 1 g | KIDNEY_TOTAL (10 mg/kg, 3 h, dose level Low): 2 g | LIVER (10 mg/kg, 3 h, tissue Liver, dose level Low): 10.5 g | ALP (10 mg/kg, 3 h, dose level Low): 973.8 IU/L | ALT (10 mg/kg, 3 h, dose level Low): 36.8 IU/L | AST (10 mg/kg, 3 h, dose level Low): 65.4 IU/L | BUN (10 mg/kg, 3 h, dose level Low): 13.2 mg/dL | CRE (10 mg/kg, 3 h, dose level Low): 0.5 mg/dL | Ca (10 mg/kg, 3 h, dose level Low): 11.2 mg/dL | DBIL (10 mg/kg, 3 h, dose level Low): 0.016 mg/dL | GLC (10 mg/kg, 3 h, dose level Low): 205.6 mg/dL | IP (10 mg/kg, 3 h, dose level Low): 10.7 mg/dL | K (10 mg/kg, 3 h, dose level Low): 5.1 meq/L | LDH (10 mg/kg, 3 h, dose level Low): 95 IU/L | Na (10 mg/kg, 3 h, dose level Low): 139.4 meq/L | PL (10 mg/kg, 3 h, dose level Low): 140.2 mg/dL | RALB (10 mg/kg, 3 h, dose level Low): 3.7 g/dL | TBIL (10 mg/kg, 3 h, dose level Low): 0.3 mg/dL | TC (10 mg/kg, 3 h, dose level Low): 76.8 mg/dL | TG (10 mg/kg, 3 h, dose level Low): 69.2 mg/dL | TP (10 mg/kg, 3 h, dose level Low): 5.3 g/dL | gamma-GTP (10 mg/kg, 3 h, dose level Low): 0.8 IU/L | TERMINAL_BW (10 mg/kg, 6 h, dose level Low): 214.5 g | APTT (10 mg/kg, 6 h, dose level Low): 16.8 s | Bas (10 mg/kg, 6 h, dose level Low): 0% | Eos (10 mg/kg, 6 h, dose level Low): 1% | Fbg (10 mg/kg, 6 h, dose level Low): 210.6 mg/dL | Hb (10 mg/kg, 6 h, dose level Low): 13.1 g/dL | Ht (10 mg/kg, 6 h, dose level Low): 39% | Lym (10 mg/kg, 6 h, dose level Low): 78.8% | MCH (10 mg/kg, 6 h, dose level Low): 22 pg | MCHC (10 mg/kg, 6 h, dose level Low): 33.5% | MCV (10 mg/kg, 6 h, dose level Low): 65.8 fL | Mono (10 mg/kg, 6 h, dose level Low): 8.6% | Neu (10 mg/kg, 6 h, dose level Low): 12% | PT (10 mg/kg, 6 h, dose level Low): 12.2 s | Plat (10 mg/kg, 6 h, dose level Low): 109 x10_4/uL | RBC (10 mg/kg, 6 h, dose level Low): 593 x10_4/ul | Ret (10 mg/kg, 6 h, dose level Low): 8.6% | WBC (10 mg/kg, 6 h, dose level Low): 129.7 x10_2/uL | KIDNEY_L (10 mg/kg, 6 h, dose level Low): 1 g | KIDNEY_R (10 mg/kg, 6 h, dose level Low): 1 g | KIDNEY_TOTAL (10 mg/kg, 6 h, dose level Low): 2 g | ALP (10 mg/kg, 6 h, dose level Low): 779.8 IU/L | ALT (10 mg/kg, 6 h, dose level Low): 27.6 IU/L | AST (10 mg/kg, 6 h, dose level Low): 62.4 IU/L | BUN (10 mg/kg, 6 h, dose level Low): 11.8 mg/dL | CRE (10 mg/kg, 6 h, dose level Low): 0.5 mg/dL | Ca (10 mg/kg, 6 h, dose level Low): 10.8 mg/dL | DBIL (10 mg/kg, 6 h, dose level Low): 0.022 mg/dL | GLC (10 mg/kg, 6 h, dose level Low): 192.4 mg/dL | IP (10 mg/kg, 6 h, dose level Low): 10.2 mg/dL | K (10 mg/kg, 6 h, dose level Low): 4.9 meq/L | LDH (10 mg/kg, 6 h, dose level Low): 94 IU/L | Na (10 mg/kg, 6 h, dose level Low): 138.8 meq/L | PL (10 mg/kg, 6 h, dose level Low): 136.4 mg/dL | RALB (10 mg/kg, 6 h, dose level Low): 3.7 g/dL | TBIL (10 mg/kg, 6 h, dose level Low): 0.4 mg/dL | TC (10 mg/kg, 6 h, dose level Low): 71.6 mg/dL | TG (10 mg/kg, 6 h, dose level Low): 60.2 mg/dL | TP (10 mg/kg, 6 h, dose level Low): 5.4 g/dL
